26 molecules from patent US8629168B2, “Benzoxazoles and oxazolopyridines being useful as janus kinases inhibitors” (priority 2006, dated 2014) can be followed below.

The IC50 is the concentration at which inhibition is half-maximal.

The structures appear in SMILES notation.

T2 sequence (O60674 808-1132): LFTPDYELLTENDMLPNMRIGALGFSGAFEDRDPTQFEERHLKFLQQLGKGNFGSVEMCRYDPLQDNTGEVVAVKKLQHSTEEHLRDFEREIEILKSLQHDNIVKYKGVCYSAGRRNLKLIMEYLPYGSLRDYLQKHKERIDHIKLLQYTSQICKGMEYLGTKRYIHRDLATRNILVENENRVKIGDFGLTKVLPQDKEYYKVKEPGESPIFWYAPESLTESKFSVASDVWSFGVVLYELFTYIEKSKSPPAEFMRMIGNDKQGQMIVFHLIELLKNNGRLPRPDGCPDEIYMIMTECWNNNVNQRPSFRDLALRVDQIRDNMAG
T1 sequence (O60674 751-1129): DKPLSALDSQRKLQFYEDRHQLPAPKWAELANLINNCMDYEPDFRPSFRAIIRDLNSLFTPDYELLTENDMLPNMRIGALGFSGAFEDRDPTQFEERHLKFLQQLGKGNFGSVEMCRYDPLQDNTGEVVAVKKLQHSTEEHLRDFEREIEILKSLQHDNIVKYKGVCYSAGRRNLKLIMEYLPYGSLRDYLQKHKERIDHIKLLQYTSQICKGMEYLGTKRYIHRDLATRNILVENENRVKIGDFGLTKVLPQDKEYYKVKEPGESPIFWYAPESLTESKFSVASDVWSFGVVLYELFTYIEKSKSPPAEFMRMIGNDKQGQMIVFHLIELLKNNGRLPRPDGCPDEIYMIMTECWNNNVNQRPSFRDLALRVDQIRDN

One assay addresses T1, GST-JAK2 (Homo sapiens, UniProt O60674).
T1 construct: the amino acid domain ASP751-VAL1129 of the JAK2 protein
Briefly: JAK2 kinase assay of the general description (alternative method, flash plate). Format: biochemical. To be noted: 1.0 μM ATP, read-out: IC50 with test in general description (named “alternative method to that given in the examples”) (“flash plate”). As for the experimental part:
Baculovirus including the amino acid domain ASP751-VAL1129 of the JAK2 protein is obtainable by ProQinase, Freiburg, Germany. The virus is scaled up as following: Virus containing media is collected from the transfected cell culture and used for infection to increase its titer. Virus containing media obtained after two rounds of infection is used for large-scale protein expression. For large-scale protein expression 100 cm^2 round tissue culture plates are seeded with 5×10^7 cells/plate and infected with 1 mL of virus-containing media (approx. 5 MOIs). After 3 days the cells are scraped off the plate and centrifuged at 500 rpm for 5 min. Cell pellets from 10-20, 100 cm^2 plates, are re-suspended in 50 mL of ice-cold lysis buffer (25 mMTris-HCl, pH7.5, 2 mMEDTA, 1% NP-40, 1 mM DTT, 1 mMP MSF). The cells are stirred on ice for 15 min and then centrifuged at 5000 rpms for 20 min. The protein is purified by loading the centrifuged cell lysate onto a 2 mL glutathione-sepharose column and washed three times with 10 mL of 25 mM Tris-HCl, pH 7.5, 2 mM EDTA, 1 mM DTT, 200 mM NaCl. The GST-tagged proteins are then eluted by 10 applications (1 mL each) of 25 mM Tris-HCl, pH 7.5, 10 mM reduced-glutathione, 100 mM NaCl, 1 mM DTT, 10% Glycerol and stored at −70° C.
Cancer Cell; 5: 231-239]. The test compound is dissolved in DMSO (10 mM) and stored at −20° C. Serial dilutions are freshly made in DMSO and are […] concentrated than test solutions (“pre-dilution plates”). They are further diluted with pure water to yield “master plates” containing 3 times concentrated test solutions in 3% DMSO. The final volume of the assay is 30 μL containing 10 μL of test solution (1% DMSO), 10 μL assay mix including the assay components described by Garcia-Echeverria (2004) and in the following section as well as 10 μL enzyme. The pipetting steps can be programmed to be performed either on the MultiPROBE Iix, MultiPROBE IILx or HamiltonSTAR robots in the 96 well format.
The protein kinase assays are carried as described in details by Garcia-Echeverria (see above). The assay for JAK2 is carried out in 96-well plates at ambient temperature for 10 min (filter-biding method) or 30 min (flash plates) in a finial volume of 30 μL including the following components: 300 ng of GST-JAK2, 20 mM Tris-HCl, pH 7.5, 1.0 mM MnCl2, 10 mM MgCl2, 1 mM DTT, 3 μg/mL poly(Glu, Tyr) 4:1, 1% DMSO and 1.0 μM ATP (γ-[^33P]-ATP 0.1 μCi); The assays are terminated by the addition of 20 μl of 125 mM EDTA. The capturing of the phosphorylated peptides by the filter-binding method is performed as following: 40 μL of the reaction mixture are transferred onto Immobilon-PVDF membranes previously soaked for 5 min with methanol, rinsed with water, then soaked for 5 min with 0.5% H3PO4 and mounted on vacuum manifold with disconnected vacuum source. After spotting all samples, vacuum is connected and each well rinsed with 200 μl 0.5% H3PO4. Free membranes are removed and washed 4× on a shaker with 1.0% H3PO4, once with ethanol. Membranes are counted after drying at ambient temperature, mounting in Packard TopCount 96-well frame, and addition of 10 μl/well of Microscint. The plates are eventually sealed and counted in a microplate scintillation counter (TopCount NXT, TopCount NXT HTS, PerkinElmer, Brussels, Belgium).
The assays for the flash plate method is carried out in a total volume of 30 μL at RT in conventional 96-well flash plates. The reaction is stopped after 30 min by the addition of 20 μL of 125 mM EDTA The assay plates are then washed three times with PBS and dried at room temperature. The plates are sealed and counted in a microplate scintillation counter (TopCount NXT, TopCount NXT HTS). IC50 values are calculated by linear regression analysis of the percentage inhibition of the compound either in duplicate, at four concentrations (usually 0.01, 0.1, 1 and 10 μM) or as 8 single point IC50 starting at 10 μM following by 1:3 dilutions.
On to `COc1cc(Nc2nc3cccc(-c4cccc(O)c4)c3o2)cc(OC)c1OC` [Example 6, [7-(3-Hydroxy-phenyl)-benzooxazol-2-yl]-(3,4,5-trimethoxy-phenyl)-amine], for which the IC50 came to 178 nM.

In the case of `COc1cc(Nc2nc3cccc(-c4ccccc4N)c3o2)cc(OC)c1OC` [Example 14, [7-(2-Amino-phenyl)-benzooxazol-2-yl]-(3,4,5-trimethoxy-phenyl)-amine], the IC50 is 610 nM.

For the molecule `COc1cc(Nc2nc3cccc(-c4ccc(NS(C)(=O)=O)cc4)c3o2)cc(OC)c1OC` [Example 26, N-{4-[2-(3,4,5-Trimethoxy-phenylamino)-benzooxazol-7-yl]-phenyl}-methanesulfonamide], the IC50 is 52 nM.

Turning to `COc1cc(Nc2nc3cccc(-c4ccc(NC(C)=O)cc4)c3o2)cc(OC)c1OC` [Example 27, N-{4-[2-(3,4,5-Trimethoxy-phenylamino)-benzooxazol-7-yl]-phenyl}-acetamide], the IC50 worked out at 200 nM.

For the molecule `COc1cc(Nc2nc3cccc(-c4ccc(CN)cc4)c3o2)cc(OC)c1OC` [Example 29, [7-(4-Aminomethyl-phenyl)-benzooxazol-2-yl]-(3,4,5-trimethoxy-phenyl)-amine], the IC50 was 250 nM.

Turning to `COc1cc(Nc2nc3cccc(-c4ccc(CNC(C)=O)cc4)c3o2)cc(OC)c1OC` [Example 30, N-{4-[2-(3,4,5-Trimethoxy-phenylamino)-benzooxazol-7-yl]-benzyl}-acetamide], the IC50 came out at 41 nM.

Consider `COc1cc(Nc2nc3cccc(-c4ccc(CNS(C)(=O)=O)cc4)c3o2)cc(OC)c1OC` [Example 31, N-{4-[2-(3,4,5-Trimethoxy-phenylamino)-benzooxazol-7-yl]-benzyl}-methanesulfonamide], for which the IC50 was 60.5 nM. Consider `CNC(=O)c1cc(-c2cccc3nc(Nc4cc(OC)c(OC)c(OC)c4)oc23)cs1` [Example 34, 4-[2-(3,4,5-Trimethoxy-phenylamino)-benzooxazol-7-yl]-thiophene-2-carboxylic acid methylamide], for which the IC50 is 540 nM. Still for that read-out and setting: the result for `COc1cc(Nc2nc3cccc(-c4ccc5[nH]cnc5c4)c3o2)cc(OC)c1OC` [Example 35, [7-(1H-Benzoimidazol-5-yl)-benzooxazol-2-yl]-(3,4,5-trimethoxy-phenyl)-amine] reads 120 nM. Same read-out and setting: the result for `COc1cc(Nc2nc3ccnc(-c4ccc(N)cc4)c3o2)cc(OC)c1OC` [Example 36, [4-(4-Amino-phenyl)-oxazolo[5,4-c]pyridin-2-yl]-(3,4,5-trimethoxy-phenyl)-amine] reads 120 nM. For the molecule `Nc1cccc(-c2cccc3nc(Nc4ccc(N5CCOCC5)cc4)oc23)c1` [Example 43, [7-(3-Amino-phenyl)-benzooxazol-2-yl]-(4-morpholin-4-yl-phenyl)-amine], the IC50 is 1900 nM. On the same count and under the same terms, the result for `COc1cc(Nc2nc3cccc(-c4ccccc4C)c3o2)cc(OC)c1OC` [Example 44, (7-o-Tolyl-benzooxazol-2-yl)-(3,4,5-trimethoxy-phenyl)-amine] reads 930 nM. Regarding `COc1cc(Nc2nc3cccc(-c4cccc(C#N)c4)c3o2)cc(OC)c1OC` [Example 45, 3-[2-(3,4,5-Trimethoxy-phenylamino)-benzooxazol-7-yl]-benzonitrile], the IC50 was found to be 950 nM. Same read-out and setting: the result for `COc1cc(Nc2nc3cccc(-c4ccccn4)c3o2)cc(OC)c1OC` [Example 46, (7-Pyridin-2-yl-benzooxazol-2-yl)-(3,4,5-trimethoxy-phenyl)-amine] reads 350 nM. Still for that read-out and setting: the result for `COc1cc(Nc2nc3cccc(-c4cccc(C(N)=O)c4)c3o2)cc(OC)c1OC` [Example 47, 3-[2-(3,4,5-Trimethoxy-phenylamino)-benzooxazol-7-yl]-benzamide] reads 593 nM; that for `COc1cc(Nc2nc3cccc(-c4cccc([N+](=O)[O-])c4)c3o2)cc(OC)c1OC` [Example 48, [7-(3-Nitro-phenyl)-benzooxazol-2-yl]-(3,4,5-trimethoxy-phenyl)-amine], 700 nM. Regarding `COc1cc(Nc2nc3cccc(-c4cccc(S(C)(=O)=O)c4)c3o2)cc(OC)c1OC` [Example 49, [7-(3-Methanesulfonyl-phenyl)-benzooxazol-2-yl]-(3,4,5-trimethoxy-phenyl)-amine], the IC50 worked out at 520 nM.

As to `CNS(=O)(=O)c1cccc(-c2cccc3nc(Nc4cc(OC)c(OC)c(OC)c4)oc23)c1` [Example 50, N-Methyl-3-[2-(3,4,5-trimethoxy-phenylamino)-benzooxazol-7-yl]-benzene-sulfonamide], the IC50 turned out to be 610 nM. On the same count and under the same terms, with `COc1ccc(-c2cccc3nc(Nc4cc(OC)c(OC)c(OC)c4)oc23)cc1[N+](=O)[O-]` [Example 51, [7-(4-Methoxy-3-nitro-phenyl)-benzooxazol-2-yl]-(3,4,5-trimethoxy-phenyl)-amine] the figure was 450 nM; with `COc1cc(Nc2nc3cccc(-c4ccc(Cl)c(N)c4)c3o2)cc(OC)c1OC` [Example 52, [7-(3-Amino-4-chloro-phenyl)-benzooxazol-2-yl]-(3,4,5-trimethoxy-phenyl)-amine], 150 nM; with `COc1ccc(-c2cccc3nc(Nc4cc(OC)c(OC)c(OC)c4)oc23)cc1N` [Example 53, [7-(3-Amino-4-methoxy-phenyl)-benzooxazol-2-yl]-(3,4,5-trimethoxy-phenyl)-amine], 557 nM. With `COc1cc(Nc2nc3cccc(-c4ccc(N(C)C)cc4)c3o2)cc(OC)c1OC` [Example 54, [7-(4-Dimethylamino-phenyl)-benzooxazol-2-yl]-(3,4,5-trimethoxy-phenyl)-amine], the IC50 worked out at 350 nM. The same measure, in the same setting: with `COc1cc(Nc2nc3cccc(-c4cccc(NS(C)(=O)=O)c4)c3o2)cc(OC)c1OC` [Example 55, N-{3-[2-(3,4,5-Trimethoxy-phenylamino)-benzooxazol-7-yl]-phenyl}-methanesulfonamide] the figure was 420 nM; with `CNS(=O)(=O)c1ccc(-c2cccc3nc(Nc4ccc(OC)c(OC)c4)oc23)cc1` [Example 59, 4-[2-(3,4-Dimethoxy-phenylamino)-benzooxazol-7-yl]-N-methyl-benzenesulfonamide], 41 nM. Same read-out and setting: with `CNC(=O)Cc1ccc(-c2cccc3nc(Nc4cc(OC)c(OC)c(OC)c4)oc23)cc1` [Example 61, N-Methyl-2-{4-[2-(3,4,5-trimethoxy-phenylamino)-benzooxazol-7-yl]-phenyl}-acetamide] the figure was 87 nM.

The next assay addresses T2, GST-JAK2(808-1132) (Homo sapiens, UniProt O60674).
T2 construct: GST-JAK2(808-1132) is purchased from Invitrogen; purchased Invitrogen (Carlsbad, USA) #4288
Briefly: EPK JAK/TYK-kinase family profiling assay (Caliper mobility shift), JAK2. Particulars: Caliper mobility shift assay of Example 187, 20 μM ATP, read-out: IC50 with Test in present Example. Type of assay: biochemical. The procedure, abridged: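 Caliper mobility-shift assay with the GST-tagged kinase domain and a fluorescently labeled peptide substrate plus ATP, run 60 min at 30° C and then stopped with EDTA buffer. Turnover was taken as the substrate/product ratio. Compounds were tested at eight final concentrations from 10 to 0.003 μM.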
With `COc1cc(Nc2nc3cccc(-c4ccc(CN)cc4)c3o2)cc(OC)c1OC` [Example 29, [7-(4-Aminomethyl-phenyl)-benzooxazol-2-yl]-(3,4,5-trimethoxy-phenyl)-amine], the IC50 was found to be 66 nM. Still for that read-out and setting: the result for `COc1cc(Nc2nc3cccc(-c4ccc(CNC(C)=O)cc4)c3o2)cc(OC)c1OC` [Example 30, N-{4-[2-(3,4,5-Trimethoxy-phenylamino)-benzooxazol-7-yl]-benzyl}-acetamide] reads 21 nM; that for `COc1cc(Nc2nc3cccc(-c4ccc(CNS(C)(=O)=O)cc4)c3o2)cc(OC)c1OC` [Example 31, N-{4-[2-(3,4,5-Trimethoxy-phenylamino)-benzooxazol-7-yl]-benzyl}-methanesulfonamide], 16.2 nM. The same measure, in the same setting: with `Cc1cc(Nc2nc3ccnc(-c4cc(F)c(CN5CCS(=O)(=O)CC5)c(F)c4)c3o2)ccc1C(=O)N(C)C` [Example 168, 4-{4-[4-(1,1-Dioxo-1lambda*6*-thiomorpholin-4-ylmethyl)-3,5-difluoro-phenyl]-oxazolo[5,4-c]pyridin-2-ylamino}-2,N,N-trimethyl-benzamide] the figure was 130 nM.
